This is an account of results in patent US20030199571A1, “(Hetero) Bicyclymethanesulfonylamino-substituted hydroxamic acid derivatives” (priority 1999, published 2003).

In this test the target is T1, human recombinant collagenase (Homo sapiens, UniProt P03956).
T1 construct: made in house; host or cells: E. coli
T1 sequence (P03956 100-469): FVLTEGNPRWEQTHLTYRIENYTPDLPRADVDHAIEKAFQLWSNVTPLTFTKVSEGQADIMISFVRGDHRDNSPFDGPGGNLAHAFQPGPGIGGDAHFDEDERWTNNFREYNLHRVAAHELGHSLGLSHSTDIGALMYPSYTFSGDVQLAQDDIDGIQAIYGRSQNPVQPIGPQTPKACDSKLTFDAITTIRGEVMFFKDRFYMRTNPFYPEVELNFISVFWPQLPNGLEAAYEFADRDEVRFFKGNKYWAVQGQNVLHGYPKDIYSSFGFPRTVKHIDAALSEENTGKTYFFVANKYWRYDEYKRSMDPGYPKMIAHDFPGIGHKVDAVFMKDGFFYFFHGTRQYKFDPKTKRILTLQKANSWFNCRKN
Description: Collagenase inhibition assay (Cawston and Barrett). The test is classed as biochemical. The settings on record: acetylated 3H type 1 bovine collagen, 37° C., 18 h. The protocol:
Procedure 2: The ability of test compounds to inhibit collagenase was investigated using the following procedure.
Collagenase Inhibition Assay:
The potency of compounds to act as inhibitors of collagenase was determined by the method of Cawston and Barrett (Anal. Biochem. 99, 340-345, 1979), hereby incorporated by reference, whereby a 1 mM solution of the inhibitor being tested or dilutions thereof, was incubated at 37° C. for 18 h with collagen and human recombinant collagenase, from synovial fibroblasts cloned, expressed and purified from E. coli, (buffered with 150 mM Tris, pH 7.6, containing 15 mM calcium chloride, 0.05% Brij 35, 200 mM sodium chloride and 0.02% sodium azide). The collagen was acetylated ^3H type 1 bovine collagen prepared by the method of Cawston and Murphy (methods in Enzymology 80, 711,1981) The samples were centrifuged to sediment undigested collagen and an aliquot of the radioactive supernatant removed for assay on a scintillation counter as a measure of hydrolysis. The collagenase activity in the presence of 1 mM inhibitor, or dilution thereof, was compared to activity in a control devoid of inhibitor and the results reported as that concentration effecting 50% of the collagenase (IC50).

Molecules are shown by their SMILES. A value given as a limit tells only on which side of the number the result lay.

A word on the IC50: it is the concentration that gives 50% inhibition. Regarding `O=C(NO)[C@@H](CNS(=O)(=O)Cc1ccccc1)NS(=O)(=O)Cc1ccc2sccc2c1` [Example 69, (R)-2-(Benzo[b]thiophen-5-ylmethanesulfonylamino)-N-hydroxy-3-(phenylmethanesulfonylamino)-propionamide], the IC50 was not below 10 µM.
To `O=C(NO)[C@H](NS(=O)(=O)Cc1ccc2ccccc2c1)c1ccc(O)cc1` [Example 12] belongs not below 10 µM.
The same measure for `O=C(NO)[C@H](NS(=O)(=O)Cc1ccc2sccc2c1)c1ccc(O)cc1` [Example 33]: not below 10 µM.
The same measure for `CC(C)(C)C[C@@H](NS(=O)(=O)Cc1ccc2ccccc2c1)C(=O)NO` [Example 6]: not below 10 µM; for `O=C(NO)[C@H](NS(=O)(=O)C[C@@H]1CCc2ccccc2C1)c1ccccc1` [Example 29, (R)-2-Phenyl-2-[(R)-1-(1,2,3,4-tetrahydronaphthalen-2-yl)methanesulfonylamino]-N-hydroxyacetamide]: not below 10 µM; for `O=C(NO)[C@@H](Cc1csc2ccccc12)NS(=O)(=O)Cc1ccc2ccccc2c1` [Example 14]: not below 10 µM.
Take `O=C(NO)[C@@H](Cc1ccccc1)NS(=O)(=O)Cc1ccc2ccccc2c1` [Example 5]: the half-maximal inhibitory concentration (IC50) is not below 10 µM.
As for `O=C(NO)[C@@H](CC1CCCCC1)NS(=O)(=O)Cc1ccc2ccccc2c1` [Example 9], the IC50 was not below 10 µM.
In the case of `O=C(NO)[C@@H](CCc1ccccc1)NS(=O)(=O)Cc1ccc2sccc2c1` [Example 38, (R)-2-(Benzo[b]thiophen-5-ylmethanesulfonylamino)-N-hydroxy-4-phenyl-butyramide], the IC50 was not below 10 µM.
With `CC(C)(C)C[C@@H](NS(=O)(=O)Cc1ccc2sccc2c1)C(=O)NO` [Example 42], the 50% inhibitory concentration (IC50) is not below 10 µM.
The same measure for `CC(C)c1ccc([C@@H](NS(=O)(=O)Cc2ccc3sccc3c2)C(=O)NO)cc1` [Example 56, (R)-2-(Benzo[b]thiophen-5-ylmethanesulfonylamino)-2-(4-isopropylphenyl)-N-hydroxy-acetamide]: not below 10 µM; for `O=C(NO)[C@@H](Cc1c[nH]c2ccccc12)NS(=O)(=O)Cc1ccc2sccc2c1` [Example 31, (R)-2-(Benzo[b]thiophen-5-ylmethanesulfonylamino)-N-hydroxy-3-(1H-indol-3-yl) propionamide.]: not below 10 µM.
Turning to `O=C(NO)[C@H](NS(=O)(=O)Cc1ccc2sccc2c1)c1ccccc1` [Example 28, (R)-2-(Benzo[b]thiophen-5-ylmethanesulfonylamino)-N-hydroxy-2-phenylacetamide], the IC50 was not below 10 µM.
As to `CC(C)(C)[C@@H](NS(=O)(=O)Cc1ccc2sccc2c1)C(=O)NO` [Example 43], the IC50 was not below 10 µM.
